Results published in ChEMBL document CHEMBL1201861, “Genomics of Drug Sensitity in Cancer screening data, Wellcome Trust Sanger Institute”.

Columns and labels:
Experiment in all cases: cells
Conditions in all cases: Homo sapiens
HuTu80 = assay type: functional, cell-based, HUTU-80;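 also: growth inhibition of HuTu80 human cells, determined with a cell viability readout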
Description: SANGER: Inhibition of human HUTU-80 cell growth in a cell viability assay.

L-428 = assay type: functional, cell-based
Description: SANGER: Inhibition of human L-428 cell growth in a cell viability assay.

HT = assay type: functional, cell-based
Description: SANGER: Inhibition of human HT cell growth in a cell viability assay.

COLO-668 = assay type: functional, cell-based
Description: SANGER: Inhibition of human COLO-668 cell growth in a cell viability assay.

K562 = assay type: functional, cell-based
Description: SANGER: Inhibition of human K-562 cell growth in a cell viability assay.

LB1047-RCC = assay type: functional, cell-based;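 also: inhibition of cell growth, determined with a cell viability assay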
Description: SANGER: Inhibition of human LB1047-RCC cell growth in a cell viability assay.

QIMR-WIL = assay type: functional, cell-based;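 also: growth inhibition of QIMR-WIL cells, read out with a cell viability assay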
Description: SANGER: Inhibition of human QIMR-WIL cell growth in a cell viability assay.

DOHH-2 = assay type: functional, cell-based;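 also: growth inhibition of human DOHH-2 cells, read out with a cell viability assay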
Description: SANGER: Inhibition of human DOHH-2 cell growth in a cell viability assay.

NB5 = assay type: functional, cell-based;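 also: growth inhibition of NB5 cells, read out as cell viability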
Description: SANGER: Inhibition of human NB5 cell growth in a cell viability assay.

ES1 = assay type: functional, cell-based;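 also: growth inhibition of ES1 cells, read out with a cell viability assay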
Description: SANGER: Inhibition of human ES1 cell growth in a cell viability assay.

TK-10 = assay type: functional, cell-based;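 also: growth inhibition of TK-10 cells, read out in a cell viability assay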
Description: SANGER: Inhibition of human TK10 cell growth in a cell viability assay.

NB6 = assay type: functional, cell-based
Description: SANGER: Inhibition of human NB6 cell growth in a cell viability assay.

RPMI-8866 = assay type: functional, cell-based
Description: SANGER: Inhibition of human RPMI-8866 cell growth in a cell viability assay.

TE-6 = assay type: functional, cell-based;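 also: growth inhibition of TE-6 cells, read out with a cell viability assay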
Description: SANGER: Inhibition of human TE-6 cell growth in a cell viability assay.

KM-H2 = assay type: functional, cell-based;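 also: growth inhibition of KM-H2 cells, read out by a cell viability assay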
Description: SANGER: Inhibition of human KM-H2 cell growth in a cell viability assay.

A388 = assay type: functional, cell-based;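 also: growth inhibition of human A388 cells, read out with a cell viability assay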
Description: SANGER: Inhibition of human A388 cell growth in a cell viability assay.

SNU-C2B = assay type: functional, cell-based;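 also: cell viability readout used to measure compound-driven suppression of SNU-C2B cell proliferation, IC50 marking half-maximal growth inhibition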
Description: SANGER: Inhibition of human SNU-C2B cell growth in a cell viability assay.

A101D = assay type: functional, cell-based;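 also: growth inhibition of the cell line, measured with a viability assay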
Description: SANGER: Inhibition of human A101D cell growth in a cell viability assay.

697 = assay type: functional, cell-based
Description: SANGER: Inhibition of human 697 cell growth in a cell viability assay.

MFH-ino = assay type: functional, cell-based;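 also: growth inhibition of human MFH-ino cells, read out by a cell viability assay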
Description: SANGER: Inhibition of human MFH-ino cell growth in a cell viability assay.

GI-1 = assay type: functional, cell-based;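 also: growth inhibition of human GI-1 cells, measured with a cell viability readout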
Description: SANGER: Inhibition of human GI-1 cell growth in a cell viability assay.

HCE-T = assay type: functional, cell-based;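 also: cell viability assay read-out, reporting inhibition of HCE-T cell growth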
Description: SANGER: Inhibition of human HCE-T cell growth in a cell viability assay.

NCI-H226 = assay type: functional, cell-based;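 also: cell viability read-out used to gauge growth inhibition of the cells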
Description: SANGER: Inhibition of human NCI-H226 cell growth in a cell viability assay.

GT3TKB = assay type: functional, cell-based;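 also: growth inhibition of the cell line, read out with a cell viability assay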
Description: SANGER: Inhibition of human GT3TKB cell growth in a cell viability assay.

ACN = assay type: functional, cell-based;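 also: growth inhibition of the human ACN cell line, read out via cell viability testing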
Description: SANGER: Inhibition of human ACN cell growth in a cell viability assay.

OCI-AML2 = assay type: functional, cell-based;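 also: growth inhibition of OCI-AML2 cells, read out with a cell viability assay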
Description: SANGER: Inhibition of human OCI-AML2 cell growth in a cell viability assay.

U-87 MG = assay type: functional, cell-based, U-87MG ATCC;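 also: growth inhibition of the cells measured with a viability assay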
Description: SANGER: Inhibition of human U-87-MG cell growth in a cell viability assay.

CCRF-CEM = assay type: functional, cell-based;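 also: inhibition of CCRF-CEM cell growth, measured by a cell viability assay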
Description: SANGER: Inhibition of human CCRF-CEM cell growth in a cell viability assay.

DMS-114 = assay type: functional, cell-based
COLO-824 = assay type: functional, cell-based
Description: SANGER: Inhibition of human COLO-824 cell growth in a cell viability assay.

TGBC24TKB = assay type: functional, cell-based;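 also: growth inhibition of human TGBC24TKB cells, read out with a cell viability assay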
Description: SANGER: Inhibition of human TGBC24TKB cell growth in a cell viability assay.

ES4 = assay type: functional, cell-based;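 also: growth inhibition of human ES4 cells, read out by a cell viability assay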
Description: SANGER: Inhibition of human ES4 cell growth in a cell viability assay.

DU-4475 = assay type: functional, cell-based
Description: SANGER: Inhibition of human DU-4475 cell growth in a cell viability assay.

LB831-BLC = assay type: functional, cell-based;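 also: growth inhibition of LB831-BLC cells, read out with a cell viability assay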
Description: SANGER: Inhibition of human LB831-BLC cell growth in a cell viability assay.

ETK-1 = assay type: functional, cell-based;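 also: growth inhibition of human ETK-1 cells, read out with a cell viability assay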
Description: SANGER: Inhibition of human ETK-1 cell growth in a cell viability assay.

BB65-RCC = assay type: functional, cell-based;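 also: growth inhibition of the cell line, measured with a cell viability assay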
Description: SANGER: Inhibition of human BB65-RCC cell growth in a cell viability assay.

SK-PN-DW = assay type: functional, cell-based;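 also: growth inhibition measured with a viability assay on these cells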
Description: SANGER: Inhibition of human SK-PN-DW cell growth in a cell viability assay.

NCI-H1395 = assay type: functional, cell-based;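 also: cell viability assay read-out quantifying reduced proliferation of human NCI-H1395 cells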
Description: SANGER: Inhibition of human NCI-H1395 cell growth in a cell viability assay.

JVM-3 = assay type: functional, cell-based;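 also: growth inhibition of human JVM-3 cells, read out with a cell viability assay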
Description: SANGER: Inhibition of human JVM-3 cell growth in a cell viability assay.

IA-LM = assay type: functional, cell-based;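 also: cell viability assay measuring growth inhibition of human IA-LM cells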
Description: SANGER: Inhibition of human IA-LM cell growth in a cell viability assay.

KM12 = assay type: functional, cell-based;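 also: KM12 cell growth inhibition, read out with a cell viability assay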
Description: SANGER: Inhibition of human KM12 cell growth in a cell viability assay.

TE-10 = assay type: functional, cell-based;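 also: growth inhibition of TE-10 cells, measured by a cell viability assay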
Description: SANGER: Inhibition of human TE-10 cell growth in a cell viability assay.

BB30-HNC = assay type: functional, cell-based;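 also: growth inhibition of the cultured cell line, read out by a cell viability assay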
Description: SANGER: Inhibition of human BB30-HNC cell growth in a cell viability assay.

COLO-829 = assay type: functional, cell-based
Description: SANGER: Inhibition of human COLO-829 cell growth in a cell viability assay.

ES3 = assay type: functional, cell-based;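 also: growth inhibition of ES3 cells, read out with a cell viability assay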
Description: SANGER: Inhibition of human ES3 cell growth in a cell viability assay.

LS-1034 = assay type: functional, cell-based
Description: SANGER: Inhibition of human LS-1034 cell growth in a cell viability assay.

LS-411N = assay type: functional, cell-based
ONS-76 = assay type: functional, cell-based;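 also: growth inhibition of human ONS-76 cells, read out with a cell viability assay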
Description: SANGER: Inhibition of human ONS-76 cell growth in a cell viability assay.

LOX IMVI = assay type: functional, cell-based
Description: SANGER: Inhibition of human LOXIMVI cell growth in a cell viability assay.

NB69 = assay type: functional, cell-based;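 also: growth inhibition of NB69 cells, determined by a cell viability assay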
Description: SANGER: Inhibition of human NB69 cell growth in a cell viability assay.

KLE = assay type: functional, cell-based;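 also: growth inhibition of human KLE cells, read out with a cell viability assay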
Description: SANGER: Inhibition of human KLE cell growth in a cell viability assay.

SHP77 = assay type: functional, cell-based, SHP-77;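 also: growth inhibition of human SHP-77 cells measured by a cell viability assay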
Description: SANGER: Inhibition of human SHP-77 cell growth in a cell viability assay.

A4-Fuk = assay type: functional, cell-based;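 also: growth inhibition of A4-Fuk cells, read out by a cell viability assay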
Description: SANGER: Inhibition of human A4-Fuk cell growth in a cell viability assay.

MMAC-SF = assay type: functional, cell-based;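 also: growth inhibition of human MMAC-SF cells, read out with a cell viability assay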
Description: SANGER: Inhibition of human MMAC-SF cell growth in a cell viability assay.

KNS-81-FD = assay type: functional, cell-based;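 also: growth inhibition of KNS-81-FD cells, read out with a cell viability assay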
Description: SANGER: Inhibition of human KNS-81-FD cell growth in a cell viability assay.

C2BBe1 = assay type: functional, cell-based;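 also: growth inhibition of C2BBe1 cells, read out through a viability assay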
Description: SANGER: Inhibition of human C2BBe1 cell growth in a cell viability assay.

LXF-289 cell line = assay type: functional, cell-based
Description: SANGER: Inhibition of human LXF-289 cell growth in a cell viability assay.

MHH-PREB-1 = assay type: functional, cell-based;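 also: cell viability assay measuring inhibition of proliferation of human MHH-PREB-1 cells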
Description: SANGER: Inhibition of human MHH-PREB-1 cell growth in a cell viability assay.

SNB-75 = assay type: functional, cell-based;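 also: cell viability assay measuring growth inhibition of human SNB-75 cells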
Description: SANGER: Inhibition of human SNB75 cell growth in a cell viability assay.

HCE-4 = assay type: functional, cell-based;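 also: cell viability assay measuring inhibition of growth in the human HCE-4 cell line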
Description: SANGER: Inhibition of human HCE-4 cell growth in a cell viability assay.

UACC-257 = assay type: functional, cell-based
Description: SANGER: Inhibition of human UACC-257 cell growth in a cell viability assay.

ML-2 = assay type: functional, cell-based;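 also: growth inhibition of ML-2 cells, measured with a cell viability readout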
Description: SANGER: Inhibition of human ML-2 cell growth in a cell viability assay.

SW 954 = assay type: functional, cell-based;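 also: growth inhibition of SW954 human cancer cells, read out as cell viability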
Description: SANGER: Inhibition of human SW954 cell growth in a cell viability assay.

SF-126 = assay type: functional, cell-based;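 also: growth inhibition of human SF126 cells, read out with a cell viability assay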
Description: SANGER: Inhibition of human SF126 cell growth in a cell viability assay.

Ramos-2G6-4C10 = assay type: functional, cell-based;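 also: growth inhibition of the cell line, measured by a cell viability read-out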
Description: SANGER: Inhibition of human Ramos-2G6-4C10 cell growth in a cell viability assay.

Structure (SMILES): O=c1[nH]c2ccccc2n1C1CCN(Cc2ccc(-c3nc4cc5[nH]cnc5cc4nc3-c3ccccc3)cc2)CC1
- IC50 (HuTu80): > 2560 nM
- IC50 (L-428): > 2560 nM
- IC50 (HT): > 2560 nM
- IC50 (COLO-668): > 2560 nM
- IC50 (K562): > 2560 nM
- IC50 (LB1047-RCC): > 2560 nM
- IC50 (QIMR-WIL): > 2560 nM
- IC50 (DOHH-2): > 2560 nM
- IC50 (NB5): > 2560 nM
- IC50 (ES1): > 2560 nM
- IC50 (TK-10): > 2560 nM
- IC50 (NB6): > 2560 nM
- IC50 (RPMI-8866): > 2560 nM
- IC50 (TE-6): > 2560 nM
- IC50 (KM-H2): > 2560 nM
- IC50 (A388): > 2560 nM
- IC50 (SNU-C2B): > 2560 nM
- IC50 (A101D): > 2560 nM
- IC50 697: > 2560 nM
- IC50 (MFH-ino): > 2560 nM
- IC50 (GI-1): > 2560 nM
- IC50 (HCE-T): > 2560 nM
- IC50 (NCI-H226): > 2560 nM
- IC50 (GT3TKB): > 2560 nM
- IC50 (ACN): > 2560 nM
- IC50 (OCI-AML2): > 2560 nM
- IC50 (U-87 MG): > 2560 nM
- IC50 (CCRF-CEM): > 2560 nM
- IC50 (DMS-114): > 2560 nM
- IC50 (COLO-824): > 2560 nM
- IC50 (TGBC24TKB): > 2560 nM
- IC50 (ES4): > 2560 nM
- IC50 (DU-4475): > 2560 nM
- IC50 (LB831-BLC): > 2560 nM
- IC50 (ETK-1): > 2560 nM
- IC50 (BB65-RCC): > 2560 nM
- IC50 (SK-PN-DW): > 2560 nM
- IC50 (NCI-H1395): > 2560 nM
- IC50 (JVM-3): > 2560 nM
- IC50 (IA-LM): > 2560 nM
- IC50 (KM12): > 2560 nM
- IC50 (TE-10): > 2560 nM
- IC50 (BB30-HNC): > 2560 nM
- IC50 (COLO-829): > 2560 nM
- IC50 (ES3): > 2560 nM
- IC50 (LS-1034): > 2560 nM
- IC50 (LS-411N): 1250 nM
- IC50 (ONS-76): > 2560 nM
- IC50 (LOX IMVI): > 2560 nM
- IC50 (NB69): > 2560 nM
- IC50 (KLE): > 2560 nM
- IC50 (SHP77): > 2560 nM
- IC50 (A4-Fuk): 1860 nM
- IC50 (MMAC-SF): > 2560 nM
- IC50 (KNS-81-FD): > 2560 nM
- IC50 (C2BBe1): > 2560 nM
- IC50 (LXF-289 cell line): 1760 nM
- IC50 (MHH-PREB-1): > 2560 nM
- IC50 (SNB-75): > 2560 nM
- IC50 (HCE-4): > 2560 nM
- IC50 (UACC-257): > 2560 nM
- IC50 (ML-2): > 2560 nM
- IC50 (SW 954): > 2560 nM
- IC50 (SF-126): > 2560 nM
- IC50 (Ramos-2G6-4C10): > 2560 nM
